Results reported in ChEMBL document CHEMBL1909046, “DrugMatrix in vitro pharmacology data”.

What was measured:
[1] = molecular target: Kappa-type opioid receptor (Homo sapiens, UniProt P41145); assay: DRUGMATRIX: Opiate kappa (OP2, KOP) radioligand binding (ligand: [3H] Diprenorphine); format: cell membranes, HEK293, Membrane; conditions: hek293; Not Active = under 50% inhibition at 10 µM
[2] = molecular target: Voltage-gated inwardly rectifying potassium channel KCNH2 (Homo sapiens, UniProt Q12809); conditions: hek293; also: in other assays of this panel Not Active means under 50% inhibition at 10 µM
Chain of Voltage-gated inwardly rectifying potassium channel KCNH2 (Q12809 whole entry): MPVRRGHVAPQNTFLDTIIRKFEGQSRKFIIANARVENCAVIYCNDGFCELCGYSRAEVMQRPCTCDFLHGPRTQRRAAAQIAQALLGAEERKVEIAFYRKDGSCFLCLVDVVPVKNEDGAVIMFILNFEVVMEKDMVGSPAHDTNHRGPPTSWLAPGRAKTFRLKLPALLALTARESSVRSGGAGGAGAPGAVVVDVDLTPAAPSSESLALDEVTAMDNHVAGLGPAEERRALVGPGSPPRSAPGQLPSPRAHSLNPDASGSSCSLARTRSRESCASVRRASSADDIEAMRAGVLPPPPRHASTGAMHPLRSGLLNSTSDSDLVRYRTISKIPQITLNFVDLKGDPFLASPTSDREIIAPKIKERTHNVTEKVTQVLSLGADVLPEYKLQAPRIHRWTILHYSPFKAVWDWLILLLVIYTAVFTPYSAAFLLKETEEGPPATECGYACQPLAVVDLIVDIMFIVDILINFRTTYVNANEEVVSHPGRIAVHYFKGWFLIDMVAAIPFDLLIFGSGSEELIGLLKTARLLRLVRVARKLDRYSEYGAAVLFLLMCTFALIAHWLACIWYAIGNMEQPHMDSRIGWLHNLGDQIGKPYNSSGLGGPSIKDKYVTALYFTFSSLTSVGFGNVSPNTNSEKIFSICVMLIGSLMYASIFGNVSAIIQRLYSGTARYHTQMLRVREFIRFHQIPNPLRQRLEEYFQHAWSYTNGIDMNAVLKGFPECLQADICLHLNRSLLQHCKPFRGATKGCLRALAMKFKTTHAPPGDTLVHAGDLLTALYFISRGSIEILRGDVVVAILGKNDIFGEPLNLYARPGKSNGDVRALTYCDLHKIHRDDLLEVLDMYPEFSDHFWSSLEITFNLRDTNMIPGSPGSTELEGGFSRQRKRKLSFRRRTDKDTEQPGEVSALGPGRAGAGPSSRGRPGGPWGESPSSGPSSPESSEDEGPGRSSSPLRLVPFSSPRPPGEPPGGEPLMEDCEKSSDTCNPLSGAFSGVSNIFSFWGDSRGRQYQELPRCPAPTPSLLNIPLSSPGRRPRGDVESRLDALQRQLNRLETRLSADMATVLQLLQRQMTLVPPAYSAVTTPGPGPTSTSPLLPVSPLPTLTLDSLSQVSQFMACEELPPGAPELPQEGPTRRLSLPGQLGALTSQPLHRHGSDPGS

[3] = molecular target: Substance-P receptor (Homo sapiens, UniProt P25103); format: cell membranes, Membrane; conditions: cho; also: in other assays of this panel Not Active means under 50% inhibition at 10 µM
Chain of Substance-P receptor (P25103 whole entry): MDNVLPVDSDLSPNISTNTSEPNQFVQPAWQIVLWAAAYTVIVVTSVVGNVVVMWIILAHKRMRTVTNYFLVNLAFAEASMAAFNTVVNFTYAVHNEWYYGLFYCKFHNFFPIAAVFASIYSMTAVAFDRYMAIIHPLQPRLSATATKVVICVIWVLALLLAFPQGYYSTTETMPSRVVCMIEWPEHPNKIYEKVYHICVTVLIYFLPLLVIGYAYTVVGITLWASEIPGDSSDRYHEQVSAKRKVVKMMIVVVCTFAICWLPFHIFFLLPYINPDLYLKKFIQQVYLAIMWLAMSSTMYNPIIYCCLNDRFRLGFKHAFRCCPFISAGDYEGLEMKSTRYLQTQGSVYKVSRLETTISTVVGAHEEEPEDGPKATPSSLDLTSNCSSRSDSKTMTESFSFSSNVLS

[4] = molecular target: Cytochrome P450 2C9 (Homo sapiens, UniProt P11712); conditions: bti-tn-5b1-4; also: in other assays of this panel Not Active means under 50% inhibition at 10 µM
Chain of Cytochrome P450 2C9 (P11712 whole entry): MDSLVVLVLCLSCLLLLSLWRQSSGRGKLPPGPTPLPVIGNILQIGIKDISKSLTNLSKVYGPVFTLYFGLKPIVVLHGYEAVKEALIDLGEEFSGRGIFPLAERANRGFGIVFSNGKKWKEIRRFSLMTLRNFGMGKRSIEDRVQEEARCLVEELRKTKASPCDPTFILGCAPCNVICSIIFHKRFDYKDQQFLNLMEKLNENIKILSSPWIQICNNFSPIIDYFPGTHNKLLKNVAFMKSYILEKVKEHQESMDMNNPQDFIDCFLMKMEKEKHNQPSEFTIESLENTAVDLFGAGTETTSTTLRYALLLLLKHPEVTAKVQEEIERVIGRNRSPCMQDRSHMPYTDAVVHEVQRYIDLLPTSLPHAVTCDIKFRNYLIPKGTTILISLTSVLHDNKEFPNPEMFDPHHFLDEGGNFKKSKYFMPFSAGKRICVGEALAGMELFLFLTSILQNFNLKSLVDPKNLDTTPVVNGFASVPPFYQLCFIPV

[5] = DRUGMATRIX: Glutamate, NMDA, Phencyclidine radioligand binding (ligand: [3H] TCP); format: cell membranes, Rattus norvegicus, Wistar, Cerebral cortex, Membrane; conditions: Not Active = under 50% inhibition at 10 µM
[6] = molecular target: 5-hydroxytryptamine receptor 1B (Rattus norvegicus, UniProt P28564); format: cell membranes, Wistar, Cerebral cortex, Membrane; also: in other assays of this panel Not Active means under 50% inhibition at 10 µM
Chain of 5-hydroxytryptamine receptor 1B (P28564 whole entry): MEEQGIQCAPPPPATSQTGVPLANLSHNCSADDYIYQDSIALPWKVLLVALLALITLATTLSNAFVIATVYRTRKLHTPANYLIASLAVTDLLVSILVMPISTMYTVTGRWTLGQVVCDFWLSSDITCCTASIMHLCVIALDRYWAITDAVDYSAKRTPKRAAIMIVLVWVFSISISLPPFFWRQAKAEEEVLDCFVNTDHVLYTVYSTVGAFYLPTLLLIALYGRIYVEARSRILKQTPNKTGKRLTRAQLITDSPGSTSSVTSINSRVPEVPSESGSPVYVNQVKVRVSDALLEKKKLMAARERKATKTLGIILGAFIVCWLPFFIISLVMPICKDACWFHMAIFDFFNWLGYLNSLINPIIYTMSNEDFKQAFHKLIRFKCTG

[7] = DRUGMATRIX: Platelet-Derived Growth Factor (PDGF) radioligand binding (ligand: [125I] PDGF); format: cell-based; conditions: nih3t3; Not Active = under 50% inhibition at 10 µM

Chain of Kappa-type opioid receptor (P41145 whole entry): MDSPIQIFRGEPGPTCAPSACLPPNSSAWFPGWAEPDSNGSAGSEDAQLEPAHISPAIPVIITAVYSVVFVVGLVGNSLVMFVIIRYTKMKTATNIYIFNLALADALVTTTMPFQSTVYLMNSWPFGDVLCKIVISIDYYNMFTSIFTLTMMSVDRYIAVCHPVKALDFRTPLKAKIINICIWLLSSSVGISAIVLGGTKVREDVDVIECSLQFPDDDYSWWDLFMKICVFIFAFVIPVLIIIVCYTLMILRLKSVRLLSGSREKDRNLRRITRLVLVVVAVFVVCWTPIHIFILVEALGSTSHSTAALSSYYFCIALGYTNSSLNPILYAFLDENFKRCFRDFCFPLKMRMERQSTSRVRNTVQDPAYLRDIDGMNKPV

CCCCOc1ccc(OCCCN2CCOCC2)cc1 [PRAMOXINE]
Not Active: IC50 [1] | IC50 [2] | Ki [2] | IC50 [3] | IC50 [4] | Ki [4] | IC50 [5] | Ki [5] | IC50 [6] | IC50 [7] | Ki [7]

O=C(C1CCCCC1)N1CC(=O)N2CCc3ccccc3C2C1 (centres undefined) [PRAZIQUANTEL]
Not Active: IC50 [1] | IC50 [2] | Ki [2] | IC50 [3] | IC50 [4] | Ki [4] | IC50 [5] | Ki [5] | IC50 [6] | IC50 [7] | Ki [7]

CCN(CC)CCOC(=O)c1ccc(N)cc1 [PROCAINE]
Not Active: IC50 [1] | IC50 [2] | Ki [2] | IC50 [3] | IC50 [4] | Ki [4] | IC50 [5] | Ki [5] | IC50 [6] | IC50 [7] | Ki [7]

CCCN(CCC)C(=O)C(CCC(=O)O)NC(=O)c1ccccc1 (centres undefined) [PROGLUMIDE]
Not Active: IC50 [1] | IC50 [2] | Ki [2] | IC50 [3] | IC50 [4] | Ki [4] | IC50 [5] | Ki [5] | IC50 [6] | IC50 [7] | Ki [7]

NC(=O)c1cnccn1 [PYRAZINAMIDE]
Not Active: IC50 [1] | IC50 [2] | Ki [2] | IC50 [3] | IC50 [4] | Ki [4] | IC50 [5] | Ki [5] | IC50 [6] | IC50 [7] | Ki [7]

OC(CCN1CCCCC1)(c1ccccc1)C1CCCCC1 (centres undefined) [TRIHEXYPHENIDYL]
Not Active: IC50 [1] | IC50 [2] | Ki [2] | IC50 [3] | IC50 [4] | Ki [4] | IC50 [5] | Ki [5] | IC50 [6] | IC50 [7] | Ki [7]

Cc1cc2cc3c(C)cc(=O)oc3c(C)c2o1 [TRIOXSALEN]
Not Active: IC50 [1] | IC50 [2] | Ki [2] | IC50 [3] | IC50 [4] | Ki [4] | IC50 [5] | Ki [5] | IC50 [6] | IC50 [7] | Ki [7]

CCCC(CCC)C(=O)O [VALPROIC ACID]
Not Active: IC50 [1] | IC50 [2] | Ki [2] | IC50 [3] | IC50 [4] | Ki [4] | IC50 [5] | Ki [5] | IC50 [6] | IC50 [7] | Ki [7]

CCC1=C[C@@H]2CN(C1)Cc1c([nH]c3ccccc13)[C@@](C(=O)OC)(c1cc3c(cc1OC)N(C)[C@H]1[C@@](O)(C(=O)OC)[C@H](OC(C)=O)[C@]4(CC)C=CCN5CC[C@]31[C@@H]54)C2 [VINORELBINE]
Not Active: IC50 [1] | IC50 [2] | Ki [2] | IC50 [3] | IC50 [4] | Ki [4] | IC50 [5] | Ki [5] | IC50 [6] | IC50 [7] | Ki [7]
